Measurements from patent publication US20100094407A1, “Multiple Bioactive Agent Eluting Stents” (Medtronic Vascular, Inc., priority 2008, published 2010).

Assay: Elution of fluocinolone and zotarolimus from coated stents, Example 1
Format: physicochemical
Details: 60 μg zotarolimus with or without 80 μg fluocinolone; FIG. 4
Source text: In one embodiment, the present disclosure relates to a multiple bioactive agent eluting stent comprising a stent framework, at least two bioactive agents on the stent framework, wherein one or more of the at least two bioactive agents affects the elution rate of one or more of the other of the at least two bioactive agents. The elution rate or profile of the bioactive agents can be determined utilizing the methods showing in Examples 1 and 2 below. For example, total cumulative release of applied bioactive agents can be measured to determine total daily release and also release over a period of time greater than one day. The at least two bioactive agents may be applied together onto a stent framework. There may be one coating which contains all of the bioactive agents. Alternatively, the bioactive agents can be applied to the stent framework in separate coatings. Each coating may contain just one bioactive agent or more than one bioactive agent. The coatings may constitute separate layers. There can also be a base layer and cap layer on the stent framework. Base layer is located closest to the stent framework and the cap layer is a layer which is located furthest away from the stent framework. The layers can be uniform or non-uniform, meaning the layers can be in the form of, for example, dots or stripes or other non-uniform patterns.
12 mm parylene coated stents were used for all builds. […]

## CO[C@H]1C[C@@H]2CC[C@@H](C)[C@@](O)(O2)C(=O)C(=O)N2CCCC[C@H]2C(=O)O[C@H]([C@H](C)C[C@@H]2CC[C@H](n3cnnn3)[C@H](OC)C2)CC(=O)[C@H](C)/C=C(\C)[C@@H](O)[C@@H](OC)C(=O)[C@H](C)C[C@H](C)/C=C/C=C/C=C/1C [zotarolimus]
  zotarolimus elution rate / total cumulative release, combination with fluocinolone vs zotarolimus alone: increased
